Source: patent publication US20250025443A1, “COMPOUNDS AND METHODS FOR TREATING CORONA VIRUSES” (CLEAR CREEK BIO, INC., priority 2021, published 2025)

Each compound was assayed against SARS-CoV-2 Papain-Like Protease (PLpro) (Severe acute respiratory syndrome coronavirus 2 (2019-nCoV) (SARS-CoV-2), UniProt P0DTD1) (assay: biochemical). Conditions: PLpro enzymatic fluorescence assay; class symbols; read-out: PLpro IC50.
In the case of `Cc1ccc(OCC2CCN2C)cc1C(=O)NC1(c2cc(OC(C)C)cc3ccccc23)CC1` (stereo not drawn) [Compound 476, N-(1-(3-Isopropoxynaphthalen-1-yl)cyclopropyl)-2-methyl-5-((1-methylazetidin-2-yl)methoxy)benzamide], the IC50 is reported as < 0.1 µM. With `CCOc1cc(C2(NC(=O)c3cc(OCC4CCN4C)ccc3C)CC2)c2ccccc2c1` (stereo not drawn) [Compound 478, N-(1-(3-Ethoxynaphthalen-1-yl)cyclopropyl)-2-methyl-5-((1-methylazetidin-2-yl)methoxy)benzamide] the IC50 was < 0.1 µM. In the case of `Cc1ccc(-c2cc(C3(NC(=O)c4cc(OCC(C)N)ccc4C)CC3)c3ccccc3c2)s1` (stereo not drawn) [Compound 479, 5-(2-Aminopropoxy)-2-methyl-N-(1-(3-(5-methylthiophen-2-yl)naphthalen-1-yl)cyclopropyl)benzamide], the IC50 is reported as < 0.1 µM. In the case of `Cc1ccc(OCC(C)N)cc1C(=O)NC1(c2cc(-c3ccc(F)cc3)cc3ccccc23)CC1` (stereo not drawn) [Compound 480, 5-(2-Aminopropoxy)-N-(1-(3-(4-fluorophenyl)naphthalen-1-yl)cyclopropyl)-2-methylbenzamide], the IC50 is reported as < 0.1 µM. For `Cc1ccc(N2CCC(N)C2)cc1C(=O)NC1(c2cccc3ccccc23)CC1` (stereo not drawn) [Compound 485, 5-(3-Aminopyrrolidin-1-yl)-2-methyl-N-(1-(naphthalen-1-yl)cyclopropyl)benzamide], the IC50 was < 0.1 µM. In the case of `Cc1ccc(OCC2CCN2C)cc1C(=O)NC1(c2cc(O)cc3ncccc23)CC1` (stereo not drawn) [Compound 488, N-(1-(7-Hydroxyquinolin-5-yl)cyclopropyl)-2-methyl-5-((1-methylazetidin-2-yl)methoxy)benzamide], the IC50 is reported as < 0.1 µM. For `Cc1ccc(-c2cc(C3(NC(=O)c4cc(OCC5CCN5C)ccc4C)CC3)c3ccccc3c2)s1` (stereo not drawn) [Compound 493, 2-Methyl-5-((1-methylazetidin-2-yl)methoxy)-N-(1-(3-(5-methylthiophen-2-yl)naphthalen-1-yl)cyclopropyl)benzamide], the IC50 was < 0.1 µM. For `Cc1ccc(OCC(C)N)cc1C(=O)NC1(c2cccc3ncccc23)CC1` (stereo not drawn) [Compound 498, 5-(2-Aminopropoxy)-2-methyl-N-(1-(quinolin-5-yl)cyclopropyl)benzamide], the IC50 was < 0.1 µM. `CC(=O)Nc1cc(C2(NC(=O)c3cc(OCC4CCN4C)ccc3C)CC2)c2ccccc2c1` (stereo not drawn) [Compound 500, N-(1-(3-Acetamidonaphthalen-1-yl)cyclopropyl)-2-methyl-5-((1-methylazetidin-2-yl)methoxy)benzamide] was tested, and the IC50 was < 0.1 µM. For `Cc1ccc(OCC(C)N)cc1C(=O)NC1(c2cc(-c3ccc(Cl)s3)cc3ccccc23)CC1` (stereo not drawn) [Compound 502, 5-(2-Aminopropoxy)-N-(1-(3-(5-chlorothiophen-2-yl)naphthalen-1-yl)cyclopropyl)-2-methylbenzamide], the IC50 was < 0.1 µM. For `C=CCc1cc(C2(NC(=O)c3cc(OCC4CCN4C)ccc3C)CC2)c2ccccc2c1` (stereo not drawn) [Compound 503, N-(1-(3-Allylnaphthalen-1-yl)cyclopropyl)-2-methyl-5-((1-methylazetidin-2-yl)methoxy)benzamide], the IC50 was < 0.1 µM. With `CCCc1cc(C2(NC(=O)c3cc(OCC4CCN4C)ccc3C)CC2)c2ccccc2c1` (stereo not drawn) [Compound 504, 2-Methyl-5-((1-methylazetidin-2-yl)methoxy)-N-(1-(3-propylnaphthalen-1-yl)cyclopropyl)benzamide] the IC50 was < 0.1 µM. `Cc1ccc(N2C[C@@H](C)N[C@@H](C)C2)cc1C(=O)NC1(c2cccc3ccccc23)CC1` [Compound 506, 5-((3S,5R)-3,5-Dimethylpiperazin-1-yl)-2-methyl-N-(1-(naphthalen-1-yl)cyclopropyl)benzamide] was tested, and the IC50 was < 0.1 µM. `Cc1ccc(OCC2CCN2C)cc1C(=O)NC1(c2c3ccccc3cc3ccccc23)CC1` (stereo not drawn) [Compound 507, N-(1-(Anthracen-9-yl)cyclopropyl)-2-methyl-5-((1-methylazetidin-2-yl)methoxy)benzamide] was tested, and the IC50 was 0.1 to 1 µM. For `COc1cc(C2(NC(=O)c3cc(OC[C@H]4C[C@H](F)CN4)ccc3C)CC2)c2ccccc2c1` [Compound 510, 5-(((2R,4S)-4-Fluoropyrrolidin-2-yl)methoxy)-N-(1-(3-methoxynaphthalen-1-yl)cyclopropyl)-2-methylbenzamide], the IC50 was < 0.1 µM.

Same assay, conditions: SARS-CoV-2 PLpro enzymatic fluorescence assay; read-out: PLpro IC50
In the case of `CCCOc1cc(C2(NC(=O)c3cc(OCC4CCN4C)ccc3C)CC2)c2ccccc2c1` (stereo not drawn) [Compound 474, 2-Methyl-5-((1-methylazetidin-2-yl)methoxy)-N-(1-(3-propoxynaphthalen-1-yl)cyclopropyl)benzamide], the IC50 is reported as < 0.1 µM. With `Cc1ccc(OCC2CCN2C)cc1C(=O)NC1(c2cc(-c3ccccc3)cc3ccccc23)CC1` (stereo not drawn) [Compound 475, 2-Methyl-5-((1-methylazetidin-2-yl)methoxy)-N-(1-(3-phenylnaphthalen-1-yl)cyclopropyl)benzamide] the IC50 was < 0.1 µM. In the case of `Cc1ccc(OCC2CCN2C)cc1C(=O)NC1(c2cccc3ccc(O)cc23)CC1` (stereo not drawn) [Compound 477, N-(1-(7-Hydroxynaphthalen-1-yl)cyclopropyl)-2-methyl-5-((1-methylazetidin-2-yl)methoxy)benzamide], the IC50 is reported as < 0.1 µM. For `Cc1cc(C2(NC(=O)c3cc(OCC(C)N)ccc3C)CC2)c2ccccc2c1` (stereo not drawn) [Compound 481, 5-(2-Aminopropoxy)-2-methyl-N-(1-(3-methylnaphthalen-1-yl)cyclopropyl)benzamide], the IC50 was < 0.1 µM. `Cc1ccc(OCC2CCN2C)cc1C(=O)NC1(c2cc(NC(=O)OC(C)(C)C)cc3ccccc23)CC1` (stereo not drawn) [Compound 482, tert-Butyl(4-(1-(2-methyl-5-((1-methylazetidin-2-yl)methoxy)benzamido)cyclopropyl)naphthalen-2-yl)carbamate] was tested, and the IC50 was < 0.1 µM. With `Cc1ccc(OCC2CCN2C)cc1C(=O)NC1(c2cccc3ccc(N)cc23)CC1` (stereo not drawn) [Compound 483, N-(1-(7-Aminonaphthalen-1-yl)cyclopropyl)-2-methyl-5-((1-methylazetidin-2-yl)methoxy)benzamide] the IC50 was < 0.1 µM. `Cc1ccc(OCC2CCN2C)cc1C(=O)NC1(c2cc(C#N)cc3ccccc23)CC1` (stereo not drawn) [Compound 484, N-(1-(3-Cyanonaphthalen-1-yl)cyclopropyl)-2-methyl-5-((1-methylazetidin-2-yl)methoxy)benzamide] was tested, and the IC50 was < 0.1 µM. In the case of `CNCCOc1ccc(C)c(C(=O)NC2(c3cc(-c4cccs4)cc4ccccc34)CC2)c1` [Compound 486, 2-Methyl-5-(2-(methylamino)ethoxy)-N-(1-(3-(thiophen-2-yl)naphthalen-1-yl)cyclopropyl)benzamide], the IC50 is reported as < 0.1 µM. `Cc1cc(N)c(OCC2CCN2C)cc1C(=O)NC1(c2cccc3ccccc23)CC1` (stereo not drawn) [Compound 487, 4-Amino-2-methyl-5-((1-methylazetidin-2-yl)methoxy)-N-(1-(naphthalen-1-yl)cyclopropyl)benzamide] was tested, and the IC50 was < 0.1 µM. `COc1cc(C2(NC(=O)c3cc(OC[C@@H]4C[C@@H](F)CN4C)ccc3C)CC2)c2ccccc2c1` [Compound 489, 5-(((2S,4R)-4-Fluoro-1-methylpyrrolidin-2-yl)methoxy)-N-(1-(3-methoxynaphthalen-1-yl)cyclopropyl)-2-methylbenzamide] was tested, and the IC50 was < 0.1 µM. With `COc1cc(C2(NC(=O)c3cc(OC[C@@H]4C[C@@H](F)CN4)ccc3C)CC2)c2ccccc2c1` [Compound 490, 5-(((2S,4R)-4-Fluoropyrrolidin-2-yl)methoxy)-N-(1-(3-methoxynaphthalen-1-yl)cyclopropyl)-2-methylbenzamide] the IC50 was < 0.1 µM. `Cc1ccc(OC2CN(Cc3ccccc3)C(C)(C)C2)cc1C(=O)NC1(c2cccc3ccccc23)CC1` (stereo not drawn) [Compound 491, 5-((1-benzyl-5,5-dimethylpyrrolidin-3-yl)oxy)-2-methyl-N-(1-(naphthalen-1-yl)cyclopropyl)benzamide] gave an IC50 of 0.1 to 1 µM. For `Cc1ccc(OCC2CC(C)(C)N2Cc2ccccc2)cc1C(=O)NC1(c2cccc3ccccc23)CC1` (stereo not drawn) [Compound 492, 5-((1-Benzyl-4,4-dimethylazetidin-2-yl)methoxy)-2-methyl-N-(1-(naphthalen-1-yl)cyclopropyl)benzamide], the IC50 was 0.1 to 1 µM. `Cc1ccc(OCC2CCN2C)cc1C(=O)NC1(c2cc(N(C)C)cc3ccccc23)CC1` (stereo not drawn) [Compound 495, N-(1-(3-(Dimethylamino)naphthalen-1-yl)cyclopropyl)-2-methyl-5-((1-methylazetidin-2-yl)methoxy)benzamide] was tested, and the IC50 was < 0.1 µM. For `Cc1ccc(OCC2CCN2C)cc1C(=O)NC1(c2cc(N)cc3ccccc23)CC1` (stereo not drawn) [Compound 496, N-(1-(3-Aminonaphthalen-1-yl)cyclopropyl)-2-methyl-5-((1-methylazetidin-2-yl)methoxy)benzamide], the IC50 was < 0.1 µM. For `Cc1cc(C2(NC(=O)c3cc(OCC(C)N)ccc3C)CC2)c2cccnc2c1` (stereo not drawn) [Compound 497, 5-(2-Aminopropoxy)-2-methyl-N-(1-(7-methylquinolin-5-yl)cyclopropyl)benzamide], the IC50 was < 0.1 µM. With `CNCCOc1ccc(C)c(C(=O)NC2(c3cccc4ccccc34)CN(C)C2)c1` [Compound 499, 2-Methyl-N-(1-methyl-3-(naphthalen-1-yl)azetidin-3-yl)-5-(2-(methylamino)ethoxy)benzamide] the IC50 was > 5 µM. In the case of `Cc1cc(C2(NC(=O)c3cc(OCC4CCN4C)ccc3C)CC2)c2ccccc2c1` (stereo not drawn) [Compound 501, 2-Methyl-5-((1-methylazetidin-2-yl)methoxy)-N-(1-(3-methylnaphthalen-1-yl)cyclopropyl)benzamide], the IC50 is reported as < 0.1 µM. For `Cc1ccc(N2CCN(CCO)CC2)cc1C(=O)NC1(c2cccc3ccccc23)CC1` [Compound 505, 5-(4-(2-Hydroxyethyl)piperazin-1-yl)-2-methyl-N-(1-(naphthalen-1-yl)cyclopropyl)benzamide], the IC50 was < 0.1 µM. For `C=C(C)c1cc(C2(NC(=O)c3cc(OCC4CCN4C)ccc3C)CC2)c2ccccc2c1` (stereo not drawn) [Compound 508, 2-Methyl-5-((1-methylazetidin-2-yl)methoxy)-N-(1-(3-(prop-1-en-2-yl)naphthalen-1-yl)cyclopropyl)benzamide], the IC50 was < 0.1 µM. `Cc1ccc(OCC2CCN2C)cc1C(=O)NC1(c2cccc3cnc(O)cc23)CC1` (stereo not drawn) [Compound 509, N-(1-(3-Hydroxyisoquinolin-5-yl)cyclopropyl)-2-methyl-5-((1-methylazetidin-2-yl)methoxy)benzamide] showed an IC50 of 0.1 to 1 µM.
